According to patent US20230092005A1, “COMPOSITIONS AND METHODS FOR TREATING CANCER AND TUMOR” (OBLATO, INC., priority 2020, published 2023):
Where “and” joins values, the source holds several entries; their conditions need not be identical. Equal entries are not always repeated.

Tests used:
[1] = tested on: human A549 lung cancer xenografts; experiment: TUNEL staining of extracted A549 xenograft tumors (apoptosis counting and grading); type: in vivo, BALB/c Nude mouse; settings: for Apoptosis grade + : number of animals / Apoptosis grade ++ (moderate): number of animals / Apoptosis grade +++ (marked): number of animals / Apoptosis grade ++++ (severe): number of animals / Apoptosis grade ± (minimal): number of animals: N=10; for Apoptosis counting No. (group mean ± S.D.): TUNEL positive cells per 1 mm^2
Source text: Histopathological test: The extracted tumors were fixed in 10% neutral buffered formalin solution (10% neutral buffered formalin). After sectioning the tumors to a certain thickness (about 3 mm), those were subjected to the general preparation procedure, embedded in paraffin, cut into 4 to 5 μm size, and tissue sections were stained with Hematoxylin and Eosin (H&E) and TUNEL. IHC (Immunohistochemistry) slides, cut into 4 to 5 μm size, were produced and sent to the sponsor (Negative Control Group (G1), Test substance 2 (G3, Animal ID Nos.: 1301, 1302, 1303, 1307, 1310), Test substance 3 (G4, Animal ID Nos.: 1401, 1402, 1404, 1408, 1409)). Determination of TUNEL staining results: After histological examination of the entire cross-section of the tumor for grading (±, +, ++, +++, ++++) of apoptosis, the nucleated brown stained cells were read as […] was counted. The apoptosis of the tumor was determined by the number of positive cells per […] (1 mm^2). The apoptosis of the tumor was determined by calculating the average number of positive cells and graded into the corresponding severity. The number of positive cells in which apoptosis occurred was determined by counting the number of positive cells per unit area (1 mm^2). Histopathological test (Table 7, FIGS. 7-11): The extracted fixed tumor was cut to a certain thickness (about 3 mm), then subjected to general tissue treatment, paraffin-embedded to produce blocks, and tissue sections of 4 to 5 μm in size were prepared. Then, Hematoxylin & Eosin (H&E) staining and TUNEL staining were performed.

[2] = tested on: human A549 lung cancer xenografts; experiment: Anti-cancer efficacy in nude mice carrying human A549 lung cancer xenografts (tumor volume, tumor weight, growth inhibition rate); type: in vivo, BALB/c Nude mouse; settings: for Tumor weights (mean): tumors weighed at day 29; for Tumor growth inhibition rate (IR): IR=(1-T/C)x100 from mean tumor weights, day 29
Experimental: The anti-cancer efficacy of OKN-007 was assessed after oral administration in nude mice carrying human A549 lung cancer xenografts implanted subcutaneously in the flank. Human lung cancer cell line, A549 was used. […] The frozen cells were thawed in a water bath. Cells were placed in a tube containing the medium and centrifuged (1,000 rpm, 5 minutes) to discard the supernatant. After re-suspending with the culture medium, cells were placed in a cell culture flask and incubated in a 5% CO2 incubator at 37° C. Cells were sub-cultured at a ratio of 1:5 when grown with confluency of 70-80% in the culture container. Cells cultured on the day of cell line transplantation were centrifuged (1,000 rpm, 5 minutes) to discard the supernatant and to make cell suspension with D-PB S. Then, the cell suspension was mixed with Matrigel at a ratio of 1:1 (5×10^7 cells/mL). BALB/c Nude mouse, [NT]-Foxnlnu/CrlOri, SPF was used. Sex, number, age, and body weight range of animals at receipt: The mice (65 mice) were male, 5 weeks old, and had about 14.5-19.6 g weight at the receipt. Cell transplantation: After the quarantine-acclimation period, the body weight measurement and cell transplantation in healthy animals were performed. […] Prepared cell (1×10^7 cells/0.2 mL) suspension was injected subcutaneously into the right flank with disposable syringes. […] Group assignment: After transplanting cells, each tumor size was monitored for 65 animals. When tumor volume reached within 87-112 mm^3, 50 animals were assigned to the respective groups with an average tumor volume of about 99 mm^3. Based on the tumor volume, animals were selected and randomly distributed into 5 groups (10 animals/group). Dosing Route: Oral administration. The route of administration was oral because the clinical application of the test substance is oral. Method and frequency of administration: For negative control and test substance, oral administration was performed once a day for 4 weeks for a total of 28 times using a disposable syringe. For positive control, intraperitoneal administration was performed once a week for 4 weeks for a total of 4 times using a disposable syringe. Dosing Route: The dose levels of the test substance were selected at 150, 300, and 600 mg/kg. The dose level of the positive substance was selected at 2 mg/kg. The dose volume was selected at 10 mL/kg for all groups, and the individual dose was calculated based on the bodyweight of animals just prior to dosing. Measurement of tumor volume: The largest diameter (a) and the smallest diameter (b) of each tumor were measured using calipers twice a week during the observation period. The tumor volume (TV) was calculated twice a week according to the following formula: TV (mm^3)=(a (mm)×b^2 (mm^2))/2. The volume of a tumor before administration to each animal was set to the value measured at the time of group assignment. Tumor removal and measurement of body weight: After the observation period, animals were anesthetized by inhalation of isoflurane. After the tumor was extracted, the weight of the removed tumor was recorded. The tumor growth inhibition rate (IR) was calculated using the following formula: IR (%)=(1-T/C)×100, where T is a mean tumor weight in the test substance group, and positive substance group, and C is a mean tumor weight in the negative control group.

Compound: CC(C)(C)/[N+]([O-])=C/c1ccc(S(=O)(=O)O)cc1S(=O)(=O)O [OKN-007, Disodium 4-[(Z)-[tert-butyl(oxido)azaniumylidene]methyl]benzene-1,3-disulfonate]
- Apoptosis grade + : number of animals ([1]; G2, 150 mg/kg P.O.): 1
- Apoptosis grade ++ (moderate): number of animals ([1]; G2, 150 mg/kg P.O.): 0
- Apoptosis grade +++ (marked): number of animals ([1]; G2, 150 mg/kg P.O.): 0
- Apoptosis grade ++++ (severe): number of animals ([1]; G2, 150 mg/kg P.O.): 0
- Apoptosis grade ± (minimal): number of animals ([1]; G2, 150 mg/kg P.O.): 9
- Apoptosis counting No. (group mean ± S.D.) ([1]; G2, 150 mg/kg P.O.): 79.6±29.8 No./mm^2 and 79.6 ± 20.8 No./mm^2
- Apoptosis grade + : number of animals ([1]; G3, 300 mg/kg P.O.): 2
- Apoptosis grade ++ (moderate): number of animals ([1]; G3, 300 mg/kg P.O.): 0
- Apoptosis grade +++ (marked): number of animals ([1]; G3, 300 mg/kg P.O.): 0
- Apoptosis grade ++++ (severe): number of animals ([1]; G3, 300 mg/kg P.O.): 0
- Apoptosis grade ± (minimal): number of animals ([1]; G3, 300 mg/kg P.O.): 8
- Apoptosis counting No. (group mean ± S.D.) ([1]; G3, 300 mg/kg P.O.): 91.5±32.2 No./mm^2
- Apoptosis grade + : number of animals ([1]; G4, 600 mg/kg P.O.): 5
- Apoptosis grade ++ (moderate): number of animals ([1]; G4, 600 mg/kg P.O.): 2
- Apoptosis grade +++ (marked): number of animals ([1]; G4, 600 mg/kg P.O.): 0
- Apoptosis grade ++++ (severe): number of animals ([1]; G4, 600 mg/kg P.O.): 0
- Apoptosis grade ± (minimal): number of animals ([1]; G4, 600 mg/kg P.O.): 3
- Apoptosis counting No. (group mean ± S.D.) ([1]; G4, 600 mg/kg P.O.): 149.9±59.5 No./mm^2
- Tumor weights (mean) ([2]; G2, 150 mg/kg P.O. once a day for 4 weeks): 0.47 g
- Tumor volume (mean) ([2]; G2, 150 mg/kg P.O. once a day, day 1 (before administration)): 99 mm^3
- Tumor volume (mean) ([2]; G2, 150 mg/kg P.O. once a day, day 5 after administration): 152 mm^3
- Tumor volume (mean) ([2]; G2, 150 mg/kg P.O. once a day, day 8 after administration): 200 mm^3
- Tumor volume (mean) ([2]; G2, 150 mg/kg P.O. once a day, day 12 after administration): 240 mm^3
- Tumor volume (mean) ([2]; G2, 150 mg/kg P.O. once a day, day 15 after administration): 243 mm^3
- Tumor volume (mean) ([2]; G2, 150 mg/kg P.O. once a day, day 19 after administration): 306 mm^3
- Tumor volume (mean) ([2]; G2, 150 mg/kg P.O. once a day, day 22 after administration): 376 mm^3
- Tumor volume (mean) ([2]; G2, 150 mg/kg P.O. once a day, day 26 after administration): 466 mm^3
- Tumor volume (mean) ([2]; G2, 150 mg/kg P.O. once a day, day 29 after administration): 603 mm^3
- Tumor growth inhibition rate (IR) ([2]; G2, 150 mg/kg P.O.): 48.9%
- Tumor weights (mean) ([2]; G3, 300 mg/kg P.O. once a day for 4 weeks): 0.43 g
- Tumor volume (mean) ([2]; G3, 300 mg/kg P.O. once a day, day 1 (before administration)): 99 mm^3
- Tumor volume (mean) ([2]; G3, 300 mg/kg P.O. once a day, day 5 after administration): 146 mm^3
- Tumor volume (mean) ([2]; G3, 300 mg/kg P.O. once a day, day 8 after administration): 172 mm^3
- Tumor volume (mean) ([2]; G3, 300 mg/kg P.O. once a day, day 12 after administration): 182 mm^3
- Tumor volume (mean) ([2]; G3, 300 mg/kg P.O. once a day, day 15 after administration): 212 mm^3
- Tumor volume (mean) ([2]; G3, 300 mg/kg P.O. once a day, day 19 after administration): 254 mm^3
- Tumor volume (mean) ([2]; G3, 300 mg/kg P.O. once a day, day 22 after administration): 310 mm^3
- Tumor volume (mean) ([2]; G3, 300 mg/kg P.O. once a day, day 26 after administration): 390 mm^3
- Tumor volume (mean) ([2]; G3, 300 mg/kg P.O. once a day, day 29 after administration): 460 mm^3
- Tumor growth inhibition rate (IR) ([2]; G3, 300 mg/kg P.O.): 53.3%
- Tumor growth inhibition rate (IR) ([2]; G3, 300 mg/kg P.O., listed as test substance): 53.5%
- Tumor weights (mean) ([2]; G4, 600 mg/kg P.O. once a day for 4 weeks): 0.38 g
- Tumor volume (mean) ([2]; G4, 600 mg/kg P.O. once a day, day 1 (before administration)): 99 mm^3
- Tumor volume (mean) ([2]; G4, 600 mg/kg P.O. once a day, day 5 after administration): 149 mm^3
- Tumor volume (mean) ([2]; G4, 600 mg/kg P.O. once a day, day 8 after administration): 176 mm^3
- Tumor volume (mean) ([2]; G4, 600 mg/kg P.O. once a day, day 12 after administration): 179 mm^3
- Tumor volume (mean) ([2]; G4, 600 mg/kg P.O. once a day, day 15 after administration): 209 mm^3
- Tumor volume (mean) ([2]; G4, 600 mg/kg P.O. once a day, day 19 after administration): 249 mm^3
- Tumor volume (mean) ([2]; G4, 600 mg/kg P.O. once a day, day 22 after administration): 288 mm^3
- Tumor volume (mean) ([2]; G4, 600 mg/kg P.O. once a day, day 26 after administration): 331 mm^3
- Tumor volume (mean) ([2]; G4, 600 mg/kg P.O. once a day, day 29 after administration): 407 mm^3
- Tumor growth inhibition rate (IR) ([2]; G4, 600 mg/kg P.O.): 58.7%
